Source: patent US11096940B2, “Treatment of hepatocellular carcinoma characterized by hepatitis B virus infection” (Celgene Corporation, priority 2017, dated 2021)
Entries after “also recorded” stand apart in the source; their conditions may differ.

Key:
Assay type in all cases: in vivo, human
[1] = system: subjects with various hematologic or solid malignancies; experiment: Phase 1/2 clinical study Part A, dose escalation (MTD determination); settings: oral
Experimental: The study was designed as a Phase 1/2 trial consisting of two parts: dose escalation (Part A) and dose expansion (Part B).
Part A was an open-label, dose-escalating study of subjects with various hematologic or solid malignancies. The primary objectives were to determine the maximum tolerated dose (MTD) and the preliminary PK of Compound 1. The MTD of Compound 1 was determined to be 45 mg/day, and the nontolerated dose (NTD) was determined to be 60 mg/day. The PK and PD data supported once daily dosing with Compound 1.

subjects with HCC = experiment: Phase 1/2 clinical study Part B, dose expansion: efficacy (RECIST response, OS, PFS) in HCC subjects
Text: Part B, the preliminary efficacy-seeking phase, was an open-label, dose-expansion study, which involved subjects with HCC.
(§1) Subjects received continuous daily dosing of Compound 1 in 28-day cycles (FIG. 1). Therapy was discontinued if there was evidence of disease progression, but subjects continued to receive Compound 1 as long as the investigator considered that the subjects derived benefit from treatment. Therapy was discontinued if there was unacceptable toxicity or if the subject decided to withdraw from the study. Subjects were contacted 28 days after the last dose of study drug to assess the status of adverse events (AEs) and to determine whether any new events or death had occurred. In addition to those subjects who had died on study, approximately 28 subjects were consented for follow-up every 2 months (±1 week) after completing the treatment phase in order to determine their date of death and complete an overall survival analysis.
Accordingly to the original protocol of Part B, 25 HCC patients started treatment of Compound 1 at 45 mg/day. After the protocol Amendment 9, 28 new HCC subjects in an additional cohort were started at 30 mg/day. The appropriateness of the 30 mg/day dose was supported by the PK and PD data from Part A. Compound 1 was administered orally, in an uninterrupted once daily schedule with no rest period between each 28-day cycle. Subjects continued to receive Compound 1 for as long as they derived benefit from treatment as judged by the investigator.
All efficacy analyses were based on both the TP and EE Population. Subjects were evaluated for efficacy during Cycles 2, 4, 6, and every 3 months after Cycle 6. The primary efficacy variable was response rate. Efficacy endpoints for HCC matured once all enrolled subjects had withdrawn from the study.
Tumor response for HCC was based on investigator's overall evaluation with RECIST. Response rate was determined by a best overall response of either CR or PR. Disease control rate (DCR) included CR, PR, and SD.
OS was defined as the time from first dose to death. All deaths, regardless of the cause of death, were included. Subjects who had not died were censored at the last contact date when the subject was known to be alive or the clinical cut-off date, whichever was earlier.
Median of OS times were calculated using the Kaplan-Meier method and the corresponding 95% CIs were presented.

[2] = PK analysis: plasma concentration in HCC patients by HBV status; settings: after oral Compound 1, first treatment cycle; FIGS. 3A, 3B
Experimental: The PK profiles of Compound 1 and its metabolite M1 were determined from serial blood and urine collections during the first treatment cycle. Plasma and urine Compound 1 and M1 were measured using validated chiral liquid chromatography-mass spectrometry methods. The lower limit of quantification (LLOQ) in plasma was 1.00 or 2.00 ng/mL for Compound 1 and 10.0 ng/mL for M1. The LLOQ in urine was 5.00 ng/mL for Compound 1 and 20 ng/mL for M1. […]

alpha-fetoprotein (AFP) = experiment: Assessment of AFP in HCC patients; settings: two HBV positive HCC patients with PR (FIG. 10)
Experimental: For the HCC subjects, baseline and change from baseline in AFP and HBV viral load (HBsAg positive subjects only) were summarized with descriptive statistics. In addition, a Wilcoxon's signed rank test was conducted to analyze change from baseline in AFP at selected scheduled visits. The p-values of such tests were provided. Change from baseline in HBV viral load was analyzed similarly. The percentage of subjects with a >50% decline from baseline in AFP was summarized for the TP.

[3] = Phase 1/2 clinical study Part B: safety and tolerability in HCC subjects; settings: subjects with HCC
Text: The primary objectives for Part B were (a) to determine the safety and tolerability of Compound 1 when administered orally and (b) to determine the preliminary PK of Compound 1 following both single and multiple oral dosing of Compound 1.
as §1

Compound: CO[C@H]1CC[C@H](N2C(=O)CNc3ncc(-c4ccc(C(C)(C)O)nc4)nc32)CC1 [Compound 1, 7-(6-(2-hydroxypropan-2-yl)pyridin-3-yl)-1-((trans)-4-methoxycyclohexyl)-3,4-dihydropyrazino[2,3-b]pyrazin-2(1H)-one]
- maximum tolerated dose (MTD) [1]: 45 mg/day
- nontolerated dose (NTD) [1]: 60 mg/day
- DCR (subjects with HCC; EE Population): 68.3%
- ORR (subjects with HCC; EE Population): 7.3%
- rate of tumor regression relative to pretreatment (subjects with HCC; EE Population): 56.1%
- median OS (subjects with HCC; HBV infected HCC patients): 12.07 months
- ORR (subjects with HCC; HBV negative subgroups): 0%
- disease control rate (DCR) (subjects with HCC; HBV negative subjects): 43.9%
- median OS (subjects with HCC; HBV negative subjects): 22.4 weeks
- median PFS (subjects with HCC; HBV negative subjects): 14.4 weeks
- target tumor shrinkage rate (subjects with HCC; HBV negative subjects): 39.0%
- ORR (subjects with HCC; HBV positive subjects): 25%
- disease control rate (DCR) (subjects with HCC; HBV positive subjects): 91.7%
- median OS (subjects with HCC; HBV positive subjects): 52.4 weeks
- median PFS (subjects with HCC; HBV positive subjects): 14.8 weeks
- target tumor shrinkage rate (subjects with HCC; HBV positive subjects): 66.7%
- complete response (CR) (subjects with HCC; HCC TP): No subject experienced a CR
- overall response rate (ORR) (subjects with HCC; HCC TP): 5.7%
- subjects with best response of SD (subjects with HCC; HCC TP): 49.1%
- number of subjects with >30% regression of target tumor lesion (subjects with HCC; HCC cohort, RECIST 1.1 (FIG. 7)): Five
- median OS (subjects with HCC; HCC cohort, all patients (FIG. 5A)): 6.9 months
- median PFS (subjects with HCC; HCC cohort, all patients (FIG. 6A)): 16 weeks
- number of subjects achieving PR (subjects with HCC; HCC cohort, all HBV positive): 3 subjects
- median OS (subjects with HCC; TP): 30.0 weeks
- median PFS (subjects with HCC; TP): 3.7 months
- disease control rate (DCR) (subjects with HCC; all subjects (HCC TP)): 54.7%
- rate of target tumor shrinkage (target lesion regression relative to pretreatment) (subjects with HCC; all subjects (HCC TP)): 45.3%
- median OS (subjects with HCC; non-HBV infected HCC patients): 5.16 months
- median duration of response (DOR) (subjects with HCC; the 3 subjects who reached PR): 124.0 days
- median duration of SD (subjects with HCC; the 26 subjects with best response of SD): 112.0 days
- radiographic response at first on-treatment restaging compared to baseline (subjects with HCC; two HBV infected HCC patients, Patient A and Patient B (FIG. 9)): regression of intrathoracic metastases; also recorded: intrahepatic tumor regression
- plasma exposure in HBV infected HCC patients (n=12) versus non-HBV infected HCC patients (n=39) [2]: comparable to the exposure observed in non-HBV infected HCC patients
- AFP on treatment compared to baseline (alpha-fetoprotein (AFP)): early clinically significant, marked reduction of AFP
- tolerability [3]: well tolerated
